Assay results as given in patent US6228843A (priority 2000, dated 2001).

Assays:
PKC-α [1] = target: T1, PKC-α (Mus musculus, UniProt P20444); experiment: PKC-α protein levels in whole lung homogenates of treated mice; type: in vivo; settings: chronic treatment of mice
T1 construct: PKC-α protein levels in whole lung homogenates; from tissue; host or cells: whole lung homogenates of treated mice

PKC-α [2] = target: T2, PKC-α (Bos taurus, UniProt P04409); experiment: PKC isozyme expression by Western blot: PKC-α degradation; type: cell-based, bovine
T2 construct: proteolytic degradation of PKC-α in smooth muscle cells; endogenous in cells; host or cells: adult bovine pulmonary artery smooth muscle cells (PA SMC)
Description: (§1) Hypoxic growth was induced by priming with the PKC activator, 10 nM PMA. Proliferative response was measured by ^3 H-thymidine incorporation and cell counts. Isozyme expression was measured by Western blot.

PKC βI = target: T3, PKC βI (Bos taurus, UniProt P05126); experiment: PKC isozyme expression by Western blot: βI; type: cell-based, bovine; settings: adult PA SMC
T3 construct: isozyme expressed in these adult cells (βI); endogenous in cells; host or cells: adult bovine pulmonary artery smooth muscle cells (PA SMC)
Description: […]. Hypoxic growth was induced by priming with the PKC activator, 10 nM PMA. Proliferative response was measured by ^3 H-thymidine incorporation and cell counts. Isozyme expression was measured by Western blot. […]. […] […].

[3] = test system: adult bovine pulmonary artery smooth muscle cells; type: cell-based
Description: as §1

PKC-α and β = experiment: PKC activity in PA SMC preparation; type: cell-based, bovine

T3 sequence (P05126 whole entry): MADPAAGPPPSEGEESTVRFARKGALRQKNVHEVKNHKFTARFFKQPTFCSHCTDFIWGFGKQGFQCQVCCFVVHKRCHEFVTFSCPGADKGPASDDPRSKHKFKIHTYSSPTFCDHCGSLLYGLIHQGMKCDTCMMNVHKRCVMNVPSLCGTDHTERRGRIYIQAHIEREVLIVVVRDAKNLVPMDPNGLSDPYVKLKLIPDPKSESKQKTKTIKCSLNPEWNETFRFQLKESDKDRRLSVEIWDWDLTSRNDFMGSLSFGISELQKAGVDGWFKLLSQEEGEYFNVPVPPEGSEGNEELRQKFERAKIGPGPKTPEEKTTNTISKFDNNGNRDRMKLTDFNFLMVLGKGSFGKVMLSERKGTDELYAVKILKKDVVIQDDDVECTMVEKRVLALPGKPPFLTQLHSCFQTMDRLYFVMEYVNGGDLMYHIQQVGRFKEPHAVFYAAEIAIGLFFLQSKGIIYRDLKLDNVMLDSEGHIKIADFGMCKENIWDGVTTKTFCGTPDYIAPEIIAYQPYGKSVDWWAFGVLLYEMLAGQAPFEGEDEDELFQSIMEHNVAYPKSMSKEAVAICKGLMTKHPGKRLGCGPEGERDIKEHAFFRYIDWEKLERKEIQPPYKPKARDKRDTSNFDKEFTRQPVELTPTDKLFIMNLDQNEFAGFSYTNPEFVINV

Compound	PKC-α protein levels in whole lung homogenates (FIG. 8) (PKC-α [1])	threshold concentration to induce PKC-α degradation (PKC-α [2])	time at which PKC-α degradation is complete (PKC-α [2]; 100 nM)	time at which PKC-α degradation is first detectable (PKC-α [2]; 100 nM)	dose dependence of PKC-α degradation and hypoxic growth (FIG. 6) (PKC-α [2]; bovine PA SMC)	time dependence of PKC-α degradation (FIG. 5) (PKC-α [2]; bovine PA SMC)	degradation of Ca2+-dependent isozyme βI (PKC βI)	hypoxia-induced PA SMC proliferation (FIG. 4) [3]	activity of PKC-α and β (FIG. 4) (PKC-α and β)
CCCC=CC=CC(=O)OC1C(=CC(=O)OC)CC2CC(C(C)O)OC(=O)CC(O)CC3CC(OC(C)=O)C(C)(C)C(O)(CC4CC(=CC(=O)OC)CC(C=CC(C)(C)C1(O)O2)O4)O3 (stereo not drawn) [bryostatin-1]	decreases PKC-α protein levels	10 nM	≤ 24 h	≤ 1 h	dose-dependent effect	time dependent	No degradation	–	–
Cn1c2ccccc2c2c3c(c4c5ccccc5n(CCC#N)c4c21)CNC3=O [Go6976]	–	–	–	–	–	–	–	inhibits hypoxia-induced PA SMC proliferation	inhibits activity of PKC-α and β
